Source: PubChem BioAssay AID330 (DTP/NCI, 2004)
Several values for one entry are separate records, joined by “and”; a condition that tells them apart may be missing. Equal entries are not always repeated. Toxic doses and inconclusive results are not listed. Peptide text beside a SMILES is read from it. * marks the point of attachment. Cbz = O=C(OCc1ccccc1)*; OtBu = CC(C)(C)O*

System: P388 leukemia ip, CD2F1 mice, survival T/C
Test: NCI In Vivo Anticancer Drug Screen. Data for tumor model P388 Leukemia (intraperitoneal) in CD2F1 (CDF1) mice
Details: endpoint: median survival time, higher = longer survival
In short: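 Mice carrying the transplanted tumor received test compound or vehicle. Survival was recorded in each group, and the value is the treated-group measurement divided by that of the vehicle-treated control group.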

[1] = dose: 6.25 mg/kg/injection, schedule: Q04DX003 (ip), vehicle: saline
[2] = dose: 12.5 mg/kg/injection, schedule: Q04DX003 (ip), vehicle: saline
[3] = dose: 50.0 mg/kg/injection, schedule: Q01DX005 (ip), vehicle: saline with Tween-80
[4] = dose: 50.0 mg/kg/injection, schedule: Q01DX009 (ip), vehicle: Klucel (hydroxypropylcellulose) (HPC)
[5] = dose: 100.0 mg/kg/injection, schedule: Q01DX009 (ip), vehicle: Klucel (hydroxypropylcellulose) (HPC)
[6] = dose: 100.0 mg/kg/injection, schedule: Q01DX005 (ip), vehicle: saline with Tween-80
[7] = dose: 200.0 mg/kg/injection, schedule: Q01DX005 (ip), vehicle: saline with Tween-80
[8] = dose: 12.5 mg/kg/injection, schedule: Q01DX005 (ip), vehicle: saline with Tween-80
[9] = dose: 50.0 mg/kg/injection, schedule: Q01DX005 (ip), vehicle: Klucel (hydroxypropylcellulose) (HPC)
[10] = dose: 100.0 mg/kg/injection, schedule: Q01DX005 (ip), vehicle: Klucel (hydroxypropylcellulose) (HPC)
[11] = dose: 200.0 mg/kg/injection, schedule: Q01DX005 (ip), vehicle: Klucel (hydroxypropylcellulose) (HPC)
[12] = dose: 25.0 mg/kg/injection, schedule: Q01DX009 (ip), vehicle: Klucel (hydroxypropylcellulose) (HPC)
[13] = dose: 200.0 mg/kg/injection, schedule: Q01DX009 (ip), vehicle: Klucel (hydroxypropylcellulose) (HPC)
[14] = dose: 60.0 mg/kg/injection, schedule: Q01DX005 (ip), vehicle: saline with Tween-80
[15] = dose: 120.0 mg/kg/injection, schedule: Q01DX005 (ip), vehicle: saline with Tween-80
[16] = dose: 240.0 mg/kg/injection, schedule: Q01DX005 (ip), vehicle: saline with Tween-80

CCOC(=O)c1cc([N+](=O)[O-])c(SSc2sc(C(=O)OCC)cc2[N+](=O)[O-])s1
T/C (dose: 100.0 mg/kg/injection, schedule: Q04DX003 (ip), vehicle: saline with Tween-80): 104 % of control
T/C (dose: 200.0 mg/kg/injection, schedule: Q04DX003 (ip), vehicle: saline with Tween-80): 96 % of control
T/C (dose: 400.0 mg/kg/injection, schedule: Q04DX003 (ip), vehicle: saline with Tween-80): 95 % of control

CN(C)CCCCCC[N+](C)(C)Cc1ccc(C[N+](C)(C)CCCCCC[N+](C)(C)Cc2ccc(CCl)cc2)cc1
T/C (dose: 3.12 mg/kg/injection, schedule: Q04DX003 (ip), vehicle: saline): 108 % of control
T/C [1]: 106 % of control
T/C [2]: 97 % of control

[Cl][Cu][Cl].[NH-]C1CCCC2CCC[N-]C12 (stereo unspecified)
T/C (dose: 12.5 mg/kg/injection, schedule: Q04DX002 (ip), vehicle: saline with Tween-80): 106 % of control

O=C(O)C(=O)O
T/C (dose: 12.5 mg/kg/injection, schedule: Q01DX005 (ip), vehicle: saline): 98 % of control
T/C (dose: 25.0 mg/kg/injection, schedule: Q01DX005 (ip), vehicle: saline): 97 % of control
T/C [3]: 92 % of control

BrP(Cc1ccccc1-c1ccccc1CP(Br)(c1ccccc1)(c1ccccc1)c1ccccc1)(c1ccccc1)(c1ccccc1)c1ccccc1
T/C (dose: 1.56 mg/kg/injection, schedule: Q01DX009 (ip), vehicle: saline): 103 % of control
T/C (dose: 3.12 mg/kg/injection, schedule: Q01DX009 (ip), vehicle: saline): 102 % of control
T/C (dose: 6.25 mg/kg/injection, schedule: Q01DX009 (ip), vehicle: saline): 100 % of control and 103 % of control

O=C1c2ccccc2C(=O)c2c(NCCNCCO)ccc(NCCO)c21
T/C (dose: 5.0 mg/kg/injection, schedule: Q04DX002 (ip), vehicle: saline): 115 % of control

COC(=O)c1ccc(OCCC(=O)CCl)cc1
T/C [4]: 102 % of control
T/C [5]: 106 % of control

C[Si](C)(C)SCCS[Si](C)(C)C
T/C [3]: 98 % of control
T/C [6]: 98 % of control
T/C [7]: 95 % of control

CCCCS(=O)(=O)CSC#N
T/C (dose: 3.12 mg/kg/injection, schedule: Q01DX005 (ip), vehicle: saline with Tween-80): 102 % of control
T/C (dose: 6.25 mg/kg/injection, schedule: Q01DX005 (ip), vehicle: saline with Tween-80): 105 % of control
T/C [8]: 117 % of control

C1=CC2(C=CCC1)OCCO2
T/C [3]: 121 % of control

CC1=C/C(=N/OS(=O)(=O)c2ccc(C)cc2)CC(C)(C)C1
T/C [3]: 101 % of control
T/C [6]: 92 % of control
T/C [7]: 117 % of control

Nc1ccn(CC(=O)c2ccc(Cl)s2)c(=O)n1
T/C (dose: 100.0 mg/kg/injection, schedule: Q04DX003 (ip), vehicle: water): 100 % of control
T/C (dose: 200.0 mg/kg/injection, schedule: Q04DX003 (ip), vehicle: water): 100 % of control
T/C (dose: 400.0 mg/kg/injection, schedule: Q04DX003 (ip), vehicle: water): 104 % of control

CC1(c2ccccn2)C(=O)c2ccccc2C1=O
T/C [9]: 98 % of control
T/C [10]: 100 % of control
T/C [11]: 99 % of control

Brc1cc(Br)c2ccccc2c1OCC1CO1 (stereo unspecified)
T/C (dose: 12.5 mg/kg/injection, schedule: Q01DX009 (ip), vehicle: Klucel (hydroxypropylcellulose) (HPC)): 106 % of control and 95 % of control
T/C [12]: 106 % of control
T/C [4]: 88 % of control and 89 % of control and 95 % of control
T/C [13]: 91 % of control

O=C(O)CCSC1=CC(=O)c2ccccc2C1=O
T/C (dose: 6.25 mg/kg/injection, schedule: Q04DX003 (ip), vehicle: gum acacia): 115 % of control
T/C (dose: 12.5 mg/kg/injection, schedule: Q04DX003 (ip), vehicle: gum acacia): 110 % of control

CN1NC(c2ccccc2)=C(C#N)C(=O)CC1c1ccco1 (stereo unspecified)
T/C [14]: 102 % of control
T/C [15]: 86 % of control
T/C [16]: 97 % of control

N=C(N)c1ccc(-c2[nH]c3cc(C(=N)N)ccc3c2N)cc1
T/C [1]: 86 % of control
T/C [2]: 88 % of control
T/C (dose: 25.0 mg/kg/injection, schedule: Q04DX003 (ip), vehicle: saline): 92 % of control

CNC(=O)OCc1nc(-c2ccccc2)oc1COC(=O)NC
T/C (dose: 12.5 mg/kg/injection, schedule: Q01DX005 (ip), vehicle: distilled water + Tween-80): 96 % of control
T/C (dose: 25.0 mg/kg/injection, schedule: Q01DX005 (ip), vehicle: distilled water + Tween-80): 97 % of control
T/C (dose: 50.0 mg/kg/injection, schedule: Q01DX005 (ip), vehicle: distilled water + Tween-80): 92 % of control
T/C (dose: 100.0 mg/kg/injection, schedule: Q01DX005 (ip), vehicle: distilled water + Tween-80): 89 % of control
T/C (dose: 200.0 mg/kg/injection, schedule: Q01DX005 (ip), vehicle: distilled water + Tween-80): 89 % of control

CCOC(=O)C1=C(C)NC(C)=C(C(=O)OCC)C1(C)C
T/C [3]: 104 % of control
T/C [6]: 100 % of control
T/C [7]: 100 % of control

CC(C)CC(NC(=O)C(Cc1ccccc1)NC(=O)C1CCCN1C(=O)OCc1ccccc1)C(=O)OC(C)(C)C (stereo not drawn) (Cbz-Pro-Phe-Leu-OtBu; configuration not given here)
T/C [3]: 100 % of control
T/C [6]: 100 % of control
T/C [7]: 91 % of control

CCCCCCCCCCCCCCCCCC(=O)CC(=O)C(F)(F)F (tested in a mixture with another compound)
T/C (dose: 50.0 mg/kg/injection, schedule: Q01DX009 (ip), vehicle: saline with Tween-80): 91 % of control
T/C (dose: 100.0 mg/kg/injection, schedule: Q01DX009 (ip), vehicle: saline with Tween-80): 92 % of control

O=C(O)c1c2ccccc2nc2ccccc12
T/C [8]: 106 % of control and 93 % of control
T/C (dose: 25.0 mg/kg/injection, schedule: Q01DX005 (ip), vehicle: saline with Tween-80): 100 % of control and 95 % of control
T/C [3]: 104 % of control and 113 % of control and 121 % of control

C=C(CCCCC)C(=O)/C=C/c1ccccc1
T/C [4]: 103 % of control
T/C [5]: 107 % of control
T/C [13]: 118 % of control

CCOC(=O)Nc1cc(NCC(=O)c2ccc(Cl)cc2)c([N+](=O)[O-])c(N)n1
T/C (dose: 50.0 mg/kg/injection, schedule: Q01DX001 (ip), vehicle: saline with Tween-80): 92 % of control
T/C (dose: 100.0 mg/kg/injection, schedule: Q01DX001 (ip), vehicle: saline with Tween-80): 90 % of control
T/C (dose: 200.0 mg/kg/injection, schedule: Q01DX001 (ip), vehicle: saline with Tween-80): 88 % of control

O=C(/C=C1\Nc2ccccc2N(C(=O)c2ccccc2)C1c1ccccc1)c1ccccc1 (stereo unspecified)
T/C (dose: 7.5 mg/kg/injection, schedule: Q01DX005 (ip), vehicle: Klucel (hydroxypropylcellulose) (HPC)): 103 % of control
T/C (dose: 15.0 mg/kg/injection, schedule: Q01DX005 (ip), vehicle: Klucel (hydroxypropylcellulose) (HPC)): 88 % of control
T/C (dose: 30.0 mg/kg/injection, schedule: Q01DX005 (ip), vehicle: Klucel (hydroxypropylcellulose) (HPC)): 88 % of control and 91 % of control
T/C (dose: 120.0 mg/kg/injection, schedule: Q01DX005 (ip), vehicle: Klucel (hydroxypropylcellulose) (HPC)): 88 % of control

CN(C)CCCC12OC(c3ccccc31)C(O)c1ccccc12 (stereo unspecified)
T/C [12]: 102 % of control
T/C [4]: 103 % of control
T/C [5]: 105 % of control
T/C [13]: 94 % of control

CCN(CC)C(C)(C)C(=O)/C=C/c1ccc(OC)cc1
T/C [14]: 115 % of control
T/C [15]: 107 % of control
T/C [16]: 100 % of control

O=C(NCCCCCCNC(=O)C1CCCN1)C1CCCN1 (stereo unspecified)
T/C (dose: 15.0 mg/kg/injection, schedule: Q01DX005 (ip), vehicle: saline): 103 % of control
T/C (dose: 30.0 mg/kg/injection, schedule: Q01DX005 (ip), vehicle: saline): 96 % of control
T/C (dose: 60.0 mg/kg/injection, schedule: Q01DX005 (ip), vehicle: saline): 100 % of control and 97 % of control

N=C(N)c1ccc2oc(/C=C/c3ccc(-c4cc5cc(C(=N)N)ccc5o4)cc3)cc2c1
T/C [9]: 98 % of control
T/C [10]: 104 % of control
T/C [11]: 104 % of control

COc1ccc2[nH]c(C(=O)N(C)C)cc2c1
T/C [3]: 100 % of control
T/C [6]: 104 % of control
T/C [7]: 101 % of control
